Measured values from BindingDB's records for doi:10.1021/acs.jmedchem.3c00250 (n/a, 2023).

Target: Protein arginine N-methyltransferase 5/MEP50 complex (Homo sapiens)
Assay: Inhibition of full-length recombinant PRMT5/full-length recombinant MEP50 (unknown origin) expressed in baculovirus infected Sf21 cells using biotinylated H4R3(Mel) peptide as substrate preincubated for 60 mins followed by substrate addition and measured for 150 minutes in the presence of SAM by methylation assay

EC50: 0.9 nM
Structure (SMILES): CC(=O)N1CCC(Nc2cc(C(=O)N3CC[C@H](N4CCc5ccccc5C4)[C@@H](O)C3)c(F)cn2)CC1
